The test system of test [1] is Pseudomonas aeruginosa ATCC 27853. Briefly: Intrinsic MIC assay (CLSI broth microdilution). It counts as cell-based. As for the experimental part: MIC assays were conducted in accordance with Clinical and Laboratory Standards Institute (CLSI) guidelines for broth microdilution. A 96-well plate containing cation-adjusted Mueller-Hinton (CAMH broth with 2-fold serial dilution of compounds was inoculated with log-phase bacterial at 5×10^5 CFU/mL. The final volume in each well was 100 μL. Each compound was tested in duplicate. The microtiter plates were incubated in an aerobic environment for 18 hours at 37° C. Then the bacterial growth was tested by reading the plate with a VersaMax plate reader (Molecular Devices, Inc.) at 600 nm. The MIC was defined as the lowest compound concentration that inhibited 90% of bacteria growth.
The intrinsic MIC of the experimental EPIs was tested with the method described. The 2-fold serial dilution begins with 100 μg/mL of tested compound in the first column of the 96-well plates. The following Gram-negative bacterial strain was included in these assays: Pseudomonas aeruginosa ATCC 27853.

Test [2] has the same test system. Briefly: Standard EPI assay: MIC of test antibiotic in absence and presence of EPI. It counts as cell-based. Conditions: for Enhanced Antibiotic's Activity (fold increase), Ceftazidime: ceftazidime with compound at 6.25 μg/mL, relative to MIC without EPI (2 μg/mL); for Enhanced Antibiotic's Activity (fold increase), Doxycycline: doxycycline with compound at 6.25 μg/mL, relative to MIC without EPI (32 μg/mL); for Enhanced Antibiotic's Activity (fold increase), Levofloxacin: levofloxacin with compound at 6.25 μg/mL, relative to MIC without EPI (1 μg/mL). The protocol:
The EPI assay for the purposes of these studies represents a MIC assay in which the MIC of the antibiotic against the bacteria is tested in the presence of an experimental efflux pump inhibitor (EPI). The highest concentration of the EPI present in the assay typically is ½ of the intrinsic MIC of the compound. If the intrinsic MIC of the EPI is greater than 100 μg/mL, the EPI assay was tested with 50 μg/mL. Using serial dilutions of the EPI, its enhancement of antibiotic activity was then evaluated. The relative EPI activity was decided by comparing the MIC of the antibiotic in the presence of the EPI compound with the intrinsic MIC of the antibiotic alone.
The impact of the EPIs on the MIC values of three test antibiotics (levofloxacin, ceftazidime and doxycycline) against P. aeruginosa ATCC 27853 were evaluated using our standard EPI assay. All three antibiotics levofloxacin, ceftazidime and doxycycline are known substrates of efflux pumps in P. aeruginosa, and are thus well-suited to be test antibiotics to assay for EPI activity.
In our standard EPI assay, the MIC of the test antibiotic is determined in the absence and presence of sub-inhibitory concentrations of the EPI. […] The MIC of levofloxacin against P. aeruginosa ATCC 27853 in the absence of EPI is 1 μg/mL. […] Similarly, the MIC of ceftazidime against P. aeruginosa ATCC 27853 in the absence of EPI is 2 μg/mL. In the presence of 6.25 μg/mL of the Example 4, the MIC of ceftazidime was reduced to 0.5 μg/mL, a 4-fold reduction. […] For all the examples in Table 1, the potentiation activities are determined at 6.25 μg/mL.

[3] abbreviates: ATCC27853, read-out: Intrinsic MIC of Compound.
The mark [4] stands for this setting: ATCC27853, P. aeruginosa ATCC 27853, compound alone, read-out: Intrinsic MIC of Compound.

The text below walks through data of patent US20240239771A1, “BACTERIAL EFFLUX PUMP INHIBITORS” (priority 2020, published 2024).

A word on the MIC: it is the least concentration at which growth counts as inhibited.

Counter-ions that a name gives are not always drawn. Like-named read-outs stand apart in the source and are kept apart here. Where only a bound is given, the exact number is not on record here.

Turning to `NCCOC[C@H](N)CNC(=O)c1[nH]c2ccccc2c1-c1ccc(F)cc1` [Example 19, (R)—N-(2-amino-3-(2-aminoethoxy)propyl)-3-(4-fluorophenyl)-1H-indole-2-carboxamide hydrogen chloride salt], the MIC in test [1] (setting [3]) was more than 100 µg/mL. Moreover, in test [2], the “Enhanced Antibiotic's Activity (fold increase), Ceftazidime” value stood at 2 fold; the “Enhanced Antibiotic's Activity (fold increase), Doxycycline” value is recorded as 16 fold; the “Enhanced Antibiotic's Activity (fold increase), Levofloxacin” value came to 16 fold.
On to `N#Cc1ccc(-c2c(C(=O)NC[C@@H](N)COCCN)[nH]c3ccc(F)cc23)cc1` [Example 20, (R)—N-(2-amino-3-(2-aminoethoxy)propyl)-3-(4-cyanophenyl)-5-fluoro-1H-indole-2-carboxamide hydrogen chloride salt], for which, in test [1] (setting [3]), the minimum inhibitory concentration (MIC) was more than 100 µg/mL. In addition, in test [2], the “Enhanced Antibiotic's Activity (fold increase), Ceftazidime” value was found to be 2 fold; the “Enhanced Antibiotic's Activity (fold increase), Doxycycline” value amounted to 16 fold; the “Enhanced Antibiotic's Activity (fold increase), Levofloxacin” value is 16 fold.
With `NCCOC[C@H](N)CNC(=O)c1[nH]c2ccccc2c1-c1ccccc1` [Example 21, (R)—N-(2-amino-3-(2-aminoethoxy)propyl)-3-phenyl-1H-indole-2-carboxamide hydrogen chloride salt], in test [1] (setting [3]), the MIC was more than 100 µg/mL. In test [2], the “Enhanced Antibiotic's Activity (fold increase), Ceftazidime” value is recorded as 1 fold; the “Enhanced Antibiotic's Activity (fold increase), Doxycycline” value is reported as 16 fold; the “Enhanced Antibiotic's Activity (fold increase), Levofloxacin” value came out at 4 fold.
In the case of `NCCOC[C@H](N)CNC(=O)c1[nH]c2ccc(F)cc2c1C1CCCCC1` [Example 22, (R)—N-(2-amino-3-(2-aminoethoxy)propyl)-3-cyclohexyl-5-fluoro-1H-indole-2-carboxamide hydrogen chloride salt], the minimal inhibitory concentration (MIC) in test [1] (setting [3]) worked out at 25 µg/mL. Also, the “Enhanced Antibiotic's Activity (fold increase), Levofloxacin” value in test [2] came out at 32 fold.
On to `NC[C@H]1CN[C@H](CNC(=O)c2[nH]c3ccccc3c2-c2ccc(F)cc2)[C@H]1O` [Example 23, N-(((2R,3S,4S)-4-(aminomethyl)-3-hydroxypyrrolidin-2-yl)methyl)-3-(4-fluorophenyl)-1H-indole-2-carboxamide hydrogen chloride salt], for which, in test [1] (setting [3]), the MIC was more than 100 µg/mL. Further, in test [2], the “Enhanced Antibiotic's Activity (fold increase), Ceftazidime” value turned out to be 2 fold; the “Enhanced Antibiotic's Activity (fold increase), Doxycycline” value was determined as 16 fold; the “Enhanced Antibiotic's Activity (fold increase), Levofloxacin” value was 8 fold.
As to `NC[C@H]1CN[C@H](CNC(=O)c2[nH]c3ccc(F)cc3c2-c2ccccc2)[C@H]1O` [Example 24, N-(((2R,3S,4S)-4-(aminomethyl)-3-hydroxypyrrolidin-2-yl)methyl)-5-fluoro-3-phenyl-1H-indole-2-carboxamide hydrogen chloride salt], in test [1] (setting [3]), the MIC was more than 100 µg/mL. Further, the “Enhanced Antibiotic's Activity (fold increase), Levofloxacin” value in test [2] worked out at 16 fold.
`NC[C@H]1CN[C@H](CNC(=O)c2[nH]c3ccccc3c2-c2ccc(F)cc2)C1=O` [Example 25, N-(((2R,4S)-4-(aminomethyl)-3-oxopyrrolidin-2-yl)methyl)-3-(4-fluorophenyl)-1H-indole-2-carboxamide hydrogen chloride salt]: in test [1] (setting [3]), the MIC was more than 100 µg/mL. For the same compound, in test [2], the “Enhanced Antibiotic's Activity (fold increase), Ceftazidime” value worked out at 1 fold; the “Enhanced Antibiotic's Activity (fold increase), Doxycycline” value turned out to be 1 fold; the “Enhanced Antibiotic's Activity (fold increase), Levofloxacin” value was 1 (1) fold.
Take `NC[C@H]1CN[C@H](CNC(=O)c2[nH]c3ccccc3c2-c2ccc(F)cc2)[C@@H]1O` [Example 26, N-(((2R,3R,4S)-4-(aminomethyl)-3-hydroxypyrrolidin-2-yl)methyl)-3-(4-fluorophenyl)-1H-indole-2-carboxamide hydrogen chloride salt]: in test [1] (setting [3]), the minimal inhibitory concentration (MIC) is more than 100 µg/mL. In test [2], the “Enhanced Antibiotic's Activity (fold increase), Ceftazidime” value was 2 fold; the “Enhanced Antibiotic's Activity (fold increase), Doxycycline” value is listed as 32 fold; the “Enhanced Antibiotic's Activity (fold increase), Levofloxacin” value is given as 16 fold.
With `NCC1(O)CN[C@H](CNC(=O)c2[nH]c3ccc(F)cc3c2-c2ccccc2Cl)C1` (stereo partly drawn) [Example 27, N-(((2S)-4-(aminomethyl)-4-hydroxypyrrolidin-2-yl)methyl)-3-(2-chlorophenyl)-5-fluoro-1H-indole-2-carboxamide hydrogen chloride salt], the minimal inhibitory concentration (MIC) in test [1] (setting [3]) is more than 100 µg/mL. The “Enhanced Antibiotic's Activity (fold increase), Levofloxacin” value in test [2] is given as 1 (1) fold.
On the same counts, the results for `NCCC(O)[C@@H](N)CNC(=O)c1cc2cccc(-c3ccc(F)cc3)c2[nH]1` (stereo partly drawn) [Example 28, N-((2S)-2,5-diamino-3-hydroxypentyl)-7-(4-fluorophenyl)-1H-indole-2-carboxamide hydrogen chloride salt] are 50 µg/mL and 16 fold.
On to `NCC(O)C[C@H](N)CNC(=O)c1[nH]c2ccccc2c1Sc1cccc(F)c1` (stereo partly drawn) [Example 29, N-((2S)-2,5-diamino-4-hydroxypentyl)-3-((3-fluorophenyl)thio)-1H-indole-2-carboxamide hydrogen chloride salt], for which the minimum inhibitory concentration (MIC) in test [1] (setting [3]) came to 200 µg/mL. Further, in test [2], the “Enhanced Antibiotic's Activity (fold increase), Ceftazidime” value turned out to be 2 fold; the “Enhanced Antibiotic's Activity (fold increase), Doxycycline” value is listed as 64 fold; the “Enhanced Antibiotic's Activity (fold increase), Levofloxacin” value was 32 fold.
For `NC[C@@H](O)C[C@H](N)CNC(=O)c1cc2ccc(-c3ccc(F)cc3)cc2[nH]1` [Example 30, 6-(4-fluorophenyl)-N-((2S)-2,5-diamino-4-hydroxypentyl)-1H-indole-2-carboxamide hydrogen chloride salt], the MIC in test [1] (setting [3]) is 50 µg/mL. In test [2], the “Enhanced Antibiotic's Activity (fold increase), Levofloxacin” value is given as 16 fold.
On to `NCCOC[C@H](N)CNC(=O)c1cc2ccc(-c3ccc(F)cc3)cc2[nH]1` [Example 31, (R)—N-(2-amino-3-(2-aminoethoxy)propyl)-6-(4-fluorophenyl)-1H-indole-2-carboxamide hydrogen chloride salt], for which, in test [1] (setting [3]), the MIC was more than 200 µg/mL. In test [2], the “Enhanced Antibiotic's Activity (fold increase), Ceftazidime” value worked out at 4 fold; the “Enhanced Antibiotic's Activity (fold increase), Doxycycline” value came out at 32 fold; the “Enhanced Antibiotic's Activity (fold increase), Levofloxacin” value was 8 fold.
In the case of `NCCOC[C@H](N)CNC(=O)c1cc2ccc(-c3ccccc3)cc2[nH]1` [Example 32, (R)—N-(2-amino-3-(2-aminoethoxy)propyl)-6-phenyl-1H-indole-2-carboxamide hydrogen chloride salt], the MIC in test [1] (setting [3]) is more than 200 µg/mL. Also, in test [2], the “Enhanced Antibiotic's Activity (fold increase), Levofloxacin” value stood at 4 fold.
In the case of `Cc1c(C(=O)NC[C@@H](N)COCCN)[nH]c2cccc(-c3ccc(F)cc3)c12` [Example 33, (R)—N-(2-amino-3-(2-aminoethoxy)propyl)-4-(4-fluorophenyl)-3-methyl-1H-indole-2-carboxamide hydrogen chloride salt], in test [1] (setting [3]), the minimal inhibitory concentration (MIC) worked out at 100 µg/mL. Further, in test [2], the “Enhanced Antibiotic's Activity (fold increase), Doxycycline” value worked out at 128 fold and the “Enhanced Antibiotic's Activity (fold increase), Levofloxacin” value worked out at 32 fold.
As for `NCCC[C@H](N)COC[C@H](N)CNC(=O)c1[nH]c2ccccc2c1-c1ccc(F)cc1` [Example 34, N—((R)-2-amino-3-(((S)-2,5-diaminopentyl)oxy)propyl)-3-(4-fluorophenyl)-1H-indole-2-carboxamide hydrogen chloride salt], the minimum inhibitory concentration (MIC) in test [1] (setting [3]) was more than 200 µg/mL. In test [2], the “Enhanced Antibiotic's Activity (fold increase), Doxycycline” value is 32 fold and the “Enhanced Antibiotic's Activity (fold increase), Levofloxacin” value is reported as 8 fold.
On to `NCC(O)[C@H](N)CNC(=O)c1[nH]c2ccccc2c1-c1ccc(F)cc1` (stereo partly drawn) [Example 35, N-((2R)-2,4-diamino-3-hydroxybutyl)-3-(4-fluorophenyl)-1H-indole-2-carboxamide], for which, in test [1] (setting [4]), the minimal inhibitory concentration (MIC) was 200 µg/mL. The “Enhanced Antibiotic's Activity (fold increase), Levofloxacin” value in test [2] is on record as 4 fold.
Regarding `NCC(O)[C@H](N)CNC(=O)c1[nH]c2ccccc2c1C1CCCC1` (stereo partly drawn) [Example 36, 3-cyclopentyl-N-((2R)-2,4-diamino-3-hydroxybutyl)-1H-indole-2-carboxamide], the MIC in test [1] (setting [4]) stood at 100 µg/mL. Further, in test [2], the “Enhanced Antibiotic's Activity (fold increase), Ceftazidime” value is 2 fold; the “Enhanced Antibiotic's Activity (fold increase), Doxycycline” value is reported as 32 fold; the “Enhanced Antibiotic's Activity (fold increase), Levofloxacin” value came out at 8 fold.
